Measured values taken from ChEMBL document CHEMBL1151469, “Cytotoxic activity of N-chlorotaurine on Acanthamoeba spp” (Antimicrob Agents Chemother, 2008).
Activity calls are given as the source filed them. The calls are words filed in the database; no cut-off is given here.

Key:
Acanthamoeba hatchetti [1] = assay: Amoebicidal activity against Trophozoites of Acanthamoeba hatchetti 11DS assessed as complete killing time at 55 mM in phosphate buffered saline at pH 7 after 3 hrs by hemocytometer using trypan blue stain in presence of 190 mM ammonium chloride; type: functional, organism-based
Acanthamoeba hatchetti [2] = assay: Amoebicidal activity against Trophozoites of Acanthamoeba hatchetti 11DS assessed as log reduction in cell count at 20 mM in peptone yeast extract glucose medium at pH 7 after 24 hrs by hemocytometer using trypan blue stain; type: functional
Acanthamoeba hatchetti [3] = assay: Amoebicidal activity against Trophozoites of Acanthamoeba hatchetti 11DS in phosphate buffered saline at pH 7 after 24 hrs by hemocytometer using trypan blue stain in presence of 34 mM ammonium chloride; type: functional, organism-based
Acanthamoeba polyphaga [4] = assay: Amoebicidal activity against Trophozoites of Acanthamoeba polyphaga 5SU in peptone yeast extract glucose medium at pH 7 after 6 hrs by hemocytometer using trypan blue stain; type: functional, organism-based
Acanthamoeba hatchetti [5] = assay: Amoebicidal activity against excysted trophozoites of Acanthamoeba hatchetti 11DS at 55 mM in peptone yeast extract glucose medium after 24 hrs by hemocytometer using trypan blue stain; type: functional
Acanthamoeba polyphaga [6] = assay: Amoebicidal activity against Trophozoites of Acanthamoeba polyphaga 5SU at 55 mM in phosphate buffered saline at pH 7 after 1 hr by hemocytometer using trypan blue stain in presence of 190 mM ammonium chloride; type: functional, organism-based
Acanthamoeba hatchetti [7] = assay: Amoebicidal activity against Trophozoites of Acanthamoeba hatchetti 11DS assessed as killing time at 55 mM in phosphate buffered saline at pH 7 by hemocytometer using trypan blue stain; type: functional
Acanthamoeba hatchetti [8] = assay: Amoebicidal activity against Trophozoites of Acanthamoeba hatchetti 11DS assessed as log reduction in cell count at 10 mM in phosphate buffered saline after 24 hrs by hemocytometer using trypan blue staining; type: functional, organism-based
Acanthamoeba polyphaga [9] = assay: Amoebicidal activity against excysted trophozoites of Acanthamoeba polyphaga 5SU at 55 mM in peptone yeast extract glucose medium after 6 days by hemocytometer using trypan blue stain; type: functional
Acanthamoeba hatchetti [10] = assay: Amoebicidal activity against Trophozoites of Acanthamoeba hatchetti 11DS in phosphate buffered saline at pH 7 after 1 hr by hemocytometer using trypan blue stain; type: functional, organism-based
Acanthamoeba polyphaga [11] = assay: Amoebicidal activity against Trophozoites of Acanthamoeba polyphaga 5SU assessed as log reduction in cell count at 10 mM in phosphate buffered saline at pH 5 after 1 hr by hemocytometer using trypan blue stain in presence of 160 mM beta-alanine; type: functional, organism-based
Acanthamoeba polyphaga [12] = assay: Amoebicidal activity against Trophozoites of Acanthamoeba polyphaga 5SU assessed as increase in cell killing at 10 mM in phosphate buffered saline at pH 7 within 3 hrs by hemocytometer using trypan blue stain in presence of 34 mM ammonium chloride; type: functional, organism-based
Acanthamoeba hatchetti [13] = assay: Amoebicidal activity against excysted trophozoites of Acanthamoeba hatchetti 11DS at 55 mM in peptone yeast extract glucose medium after 6 days by hemocytometer using trypan blue stain; type: functional
Acanthamoeba castellanii [14] = assay: Amoebicidal activity against Trophozoites of Acanthamoeba castellanii 4CL assessed as killing time at 20 mM in peptone yeast extract glucose medium at pH 7 by hemocytometer using trypan blue stain; type: functional
Acanthamoeba polyphaga [15] = assay: Amoebicidal activity against Trophozoites of Acanthamoeba polyphaga 5SU assessed as log reduction in cell count at 10 mM in phosphate buffered saline at pH 5 after 6 hrs by hemocytometer using trypan blue stain; type: functional, organism-based
Acanthamoeba polyphaga [16] = assay: Amoebicidal activity against Trophozoites of Acanthamoeba polyphaga 5SU assessed as killing time at 20 mM in peptone yeast extract glucose medium at pH 7 by hemocytometer using trypan blue stain; type: functional
Acanthamoeba polyphaga [17] = assay: Amoebicidal activity against Trophozoites of Acanthamoeba polyphaga 5SU in phosphate buffered saline at pH 7 after 1 hr by hemocytometer using trypan blue stain; type: functional, organism-based
Acanthamoeba polyphaga [18] = assay: Amoebicidal activity against Trophozoites of Acanthamoeba polyphaga 5SU assessed as killing time at 55 mM in peptone yeast extract glucose medium at pH 7 by hemocytometer using trypan blue stain; type: functional
Acanthamoeba castellanii [19] = assay: Amoebicidal activity against Trophozoites of Acanthamoeba castellanii 40AB assessed as log reduction in cell count at 10 mM in phosphate buffered saline at pH 7 after 6 hrs by hemocytometer using trypan blue stain; type: functional
Acanthamoeba polyphaga [20] = assay: Amoebicidal activity against Trophozoites of Acanthamoeba polyphaga 5SU assessed as increase in reduction in cell count at 20 mM in peptone yeast extract glucose medium at pH 7 after 6 hrs by hemocytometer using trypan blue stain; type: functional, organism-based
Acanthamoeba polyphaga [21] = assay: Amoebicidal activity against Trophozoites of Acanthamoeba polyphaga 5SU assessed as rounding of cells at 55 mM in phosphate buffered saline at pH 7 after 15 mins by hemocytometer using trypan blue stain in presence of 190 mM ammonium chloride; type: functional, organism-based
Acanthamoeba polyphaga [22] = assay: Amoebicidal activity against Trophozoites of Acanthamoeba polyphaga 5SU in phosphate buffered saline at pH 7 after 6 hrs by hemocytometer using trypan blue stain in presence of 34 mM ammonium chloride; type: functional, organism-based
Acanthamoeba polyphaga [23] = assay: Amoebicidal activity against Trophozoites of Acanthamoeba polyphaga 5SU assessed as increase in reduction in cell count at 20 mM in peptone yeast extract glucose medium at pH 7 after 6 hrs by hemocytometer using trypan blue stain in presence of 68 mM ammonium chloride; type: functional, organism-based
Acanthamoeba hatchetti [24] = assay: Amoebicidal activity against Trophozoites of Acanthamoeba hatchetti 11DS assessed as log reduction in cell count at 10 mM in phosphate buffered saline at pH 5 after 24 hrs by hemocytometer using trypan blue staining in presence of 160 mM mM beta-alanine; type: functional, organism-based
Acanthamoeba polyphaga [25] = assay: Amoebicidal activity against Trophozoites of Acanthamoeba polyphaga 5SU assessed as rounding of cells at 55 mM in phosphate buffered saline at pH 7 after 15 mins by hemocytometer using trypan blue stain; type: functional, organism-based
Acanthamoeba polyphaga [26] = assay: Amoebicidal activity against Trophozoites of Acanthamoeba polyphaga 5SU assessed as log reduction in cell count at 10 mM in phosphate buffered saline at pH 5 after 1 hr by hemocytometer using trypan blue staining; type: functional, organism-based
Acanthamoeba castellanii [27] = assay: Amoebicidal activity against Trophozoites of Acanthamoeba castellanii 40AB assessed as killing time at 20 mM in peptone yeast extract glucose medium at pH 7 by hemocytometer using trypan blue stain; type: functional
Acanthamoeba hatchetti [28] = assay: Amoebicidal activity against Trophozoites of Acanthamoeba hatchetti 11DS assessed as complete loss of viability at 55 mM in phosphate buffered saline incubated in xenic agar medium after 14 days by hemocytometer using trypan blue stain in presence of 190 mM ammonium chloride; type: functional, organism-based
Acanthamoeba hatchetti [29] = assay: Amoebicidal activity against Trophozoites of Acanthamoeba hatchetti 11DS assessed as killing time at 10 mM in phosphate buffered saline at pH 5 by hemocytometer using trypan blue stain in presence of 290 mM ammonium chloride; type: functional
Acanthamoeba castellanii [30] = assay: Amoebicidal activity against excysted trophozoites of Acanthamoeba castellanii 40AB at 55 mM in peptone yeast extract glucose medium after 11 days by hemocytometer using trypan blue stain; type: functional
Acanthamoeba hatchetti [31] = assay: Amoebicidal activity against Trophozoites of Acanthamoeba hatchetti 11DS in peptone yeast extract glucose medium at pH 7 after 24 hrs by hemocytometer using trypan blue stain in presence of 68 mM ammonium chloride; type: functional, organism-based
Acanthamoeba hatchetti [32] = assay: Amoebicidal activity against Trophozoites of Acanthamoeba hatchetti 11DS assessed as increase in reduction in cell count at 20 mM in peptone yeast extract glucose medium at pH 7 after 6 hrs by hemocytometer using trypan blue stain in presence of 68 mM ammonium chloride; type: functional, organism-based
Acanthamoeba hatchetti [33] = assay: Amoebicidal activity against Trophozoites of Acanthamoeba hatchetti 11DS assessed as log reduction in cell count at 10 mM in phosphate buffered saline at pH 5 within 1 hr by hemocytometer using trypan blue stain in presence of 290 mM ammonium chloride; type: functional

## O=S(=O)(O)CCNCl
Acanthamoeba hatchetti [1]
  Activity: Active
Acanthamoeba hatchetti [2]
  Activity: 2
Acanthamoeba hatchetti [3]
  EC50: 5.11 mM
  EC90: 9.13 mM
Acanthamoeba polyphaga [4]
  EC50: 11.7 mM
Acanthamoeba hatchetti [5]
  Activity: 4600
Acanthamoeba polyphaga [6]
  Activity: Active
Acanthamoeba hatchetti [7]
  Activity: 30 min
Acanthamoeba hatchetti [8]
  Activity: Active
Acanthamoeba polyphaga [9]
  Activity: 18000
Acanthamoeba hatchetti [10]
  EC50: 15.5 mM
Acanthamoeba polyphaga [11]
  Activity: Active
Acanthamoeba polyphaga [12]
  Activity: Active
Acanthamoeba hatchetti [13]
  Activity: 210000
Acanthamoeba castellanii [14]
  Activity: 36 h
Acanthamoeba polyphaga [15]
  Activity: Active
Acanthamoeba polyphaga [16]
  Activity: 36 h
Acanthamoeba polyphaga [17]
  EC50: 29.3 mM
Acanthamoeba polyphaga [18]
  Activity: 3 h
Acanthamoeba castellanii [19]
  Activity: 2
Acanthamoeba polyphaga [20]
  Activity: Active
Acanthamoeba polyphaga [21]
  Activity: Active
Acanthamoeba polyphaga [22]
  EC50: 5 mM
  EC90: 9.08 mM
Acanthamoeba polyphaga [23]
  Activity: inactive
Acanthamoeba hatchetti [24]
  Activity: Active
Acanthamoeba polyphaga [25]
  Activity: Active
Acanthamoeba polyphaga [26]
  Activity: Active
Acanthamoeba castellanii [27]
  Activity: 36 h
Acanthamoeba hatchetti [28]
  Activity: inactive
Acanthamoeba hatchetti [29]
  Activity: 24 h
Acanthamoeba castellanii [30]
  Activity: 130000
Acanthamoeba hatchetti [31]
  EC50: 10.2 mM
Acanthamoeba hatchetti [32]
  Activity: Active
Acanthamoeba hatchetti [33]
  Activity: 2
